Source: patent publication US7504517B2, “Kv1.5 potassium channel inhibitors” (Wyeth, priority 2006, dated 2009)
Structures can show the parent of a compound that is named as a salt.

What was measured:
[1] = target: T1, Kv1.5 (Homo sapiens, UniProt P22460); test: Kv1.5 Patch Clamp EP; format: cell-based; conditions: whole cell patch clamp; for IC50: HEK or LTK- cells, at least four concentrations, n=3
T1 construct: expressed in transfected cells; host or cells: HEK or LTK- cells
Procedure: The external solution is standard Tyrodes solution. […] Inhibition was measured at the end of the 1 second pulses and expressed relative to controls. Initial Kv1.5 inhibition is estimated by single point determinations done at 1 μM.

[2] = system: L-type calcium channels; test: FLIPR L-Type Calcium Channel Assay; format: cell-based, murine; conditions: HL-1 cells expressing endogenous L-type calcium channels; calcium influx after 20 mM KCl; read-out: L-type Ca^2+ IC50
Procedure: 50 μL per well test compounds are added to the plates and further incubated for 15 min. in a 5% CO2 37° C. incubator. All final solutions contain the anion exchange inhibitor, probenecid (2.5 mM). The 96-well plates are then placed in the center position of the FLIPR 1 (Fluorometric Imaging Plate Reader, Molecular Devices Corporation). Cell monolayers in each well are simultaneously illuminated at 488 nm with an Argon ion laser, and fluorescence emission is monitored using a 510-570 nm bandpass filter and a cooled CCD camera. To depolarize the plasma membrane and activate L-type calcium channels, 50 μL per well of 20 mM KCl (final concentration) are dispensed simultaneously to all 96 wells using the FLIPR's automatic 96-well pipettor. Fluorescence measurements are captured for 5 min. following KCl addition. Calcium influx, expressed as % control, is calculated for each concentration of test compound and concentration-response curves and IC50 values are generated using GraphPad Prism 4.0.

[3] = target: HERG (Homo sapiens, UniProt Q12809); test: HERG Patch Clamp EP; conditions: for inhibition at 10 µM: human, HEK cells stably overexpressing HERG
Chain of HERG (Q12809 whole entry): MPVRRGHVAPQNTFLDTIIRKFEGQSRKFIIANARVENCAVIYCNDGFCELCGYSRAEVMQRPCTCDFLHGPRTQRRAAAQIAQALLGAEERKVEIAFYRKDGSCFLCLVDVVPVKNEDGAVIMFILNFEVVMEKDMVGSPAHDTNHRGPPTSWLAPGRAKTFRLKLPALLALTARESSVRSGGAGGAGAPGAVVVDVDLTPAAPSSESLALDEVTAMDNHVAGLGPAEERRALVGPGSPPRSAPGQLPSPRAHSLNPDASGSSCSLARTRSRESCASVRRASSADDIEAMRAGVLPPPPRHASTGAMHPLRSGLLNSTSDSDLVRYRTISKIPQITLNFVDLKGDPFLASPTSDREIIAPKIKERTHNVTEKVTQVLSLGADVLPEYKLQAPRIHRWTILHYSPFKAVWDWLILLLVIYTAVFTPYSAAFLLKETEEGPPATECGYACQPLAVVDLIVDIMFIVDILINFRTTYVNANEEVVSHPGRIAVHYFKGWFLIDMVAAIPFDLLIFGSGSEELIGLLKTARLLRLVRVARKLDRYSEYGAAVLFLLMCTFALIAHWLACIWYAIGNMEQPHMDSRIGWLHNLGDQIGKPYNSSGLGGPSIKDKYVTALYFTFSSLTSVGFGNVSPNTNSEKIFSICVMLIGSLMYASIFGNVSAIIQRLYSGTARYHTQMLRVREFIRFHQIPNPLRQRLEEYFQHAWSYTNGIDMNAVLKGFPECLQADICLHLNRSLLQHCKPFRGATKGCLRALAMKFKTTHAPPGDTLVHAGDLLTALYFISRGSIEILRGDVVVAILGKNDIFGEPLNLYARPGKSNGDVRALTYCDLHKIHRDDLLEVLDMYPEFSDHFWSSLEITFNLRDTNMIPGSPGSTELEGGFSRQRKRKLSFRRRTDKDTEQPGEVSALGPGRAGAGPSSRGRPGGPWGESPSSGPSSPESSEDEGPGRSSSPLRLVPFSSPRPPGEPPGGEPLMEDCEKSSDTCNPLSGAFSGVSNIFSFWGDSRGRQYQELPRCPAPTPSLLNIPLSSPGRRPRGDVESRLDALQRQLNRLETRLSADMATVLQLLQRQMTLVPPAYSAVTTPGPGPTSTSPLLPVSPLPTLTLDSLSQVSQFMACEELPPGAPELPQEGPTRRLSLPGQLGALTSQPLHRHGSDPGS
Procedure: HERG currents are recorded by the whole cell mode of patch clamp electrophysiology as described by Hamill et al.^3 HERG is stably over expressed in HEK cells. Microelectrodes are pulled from borosilicate glass (TW150) and heat polished (tip resistance, 1.5 to 3 megaohms). The external solution is standard Tyrodes solution. The internal (microelectrode) solution contained: 110 mM KCl, 5 mM K2ATP, 5 mM K4BAPTA, 1 mM MgCl2 and 10 mM HEPES, adjusted to pH 7.2 with KOH. […] Compounds are prepared as 10-20 mM DMSO stocks and diluted to appropriate test concentrations. […] Inhibition of HERG is measured at the peak of the tail currents and expressed relative to controls. Initial HERG activity is estimated by single point determinations run at 10 μM. Concentration response curves are generated for appropriate compounds utilizing at least four concentrations and an n=3. Curve fitting and IC50 estimating are done using Graphpad software (Ver. 4). • 1.

[4] = 1.0 μM, single point, Kv1.5 stably over expressed in HEK or LTK- cells

T1 sequence (P22460 whole entry): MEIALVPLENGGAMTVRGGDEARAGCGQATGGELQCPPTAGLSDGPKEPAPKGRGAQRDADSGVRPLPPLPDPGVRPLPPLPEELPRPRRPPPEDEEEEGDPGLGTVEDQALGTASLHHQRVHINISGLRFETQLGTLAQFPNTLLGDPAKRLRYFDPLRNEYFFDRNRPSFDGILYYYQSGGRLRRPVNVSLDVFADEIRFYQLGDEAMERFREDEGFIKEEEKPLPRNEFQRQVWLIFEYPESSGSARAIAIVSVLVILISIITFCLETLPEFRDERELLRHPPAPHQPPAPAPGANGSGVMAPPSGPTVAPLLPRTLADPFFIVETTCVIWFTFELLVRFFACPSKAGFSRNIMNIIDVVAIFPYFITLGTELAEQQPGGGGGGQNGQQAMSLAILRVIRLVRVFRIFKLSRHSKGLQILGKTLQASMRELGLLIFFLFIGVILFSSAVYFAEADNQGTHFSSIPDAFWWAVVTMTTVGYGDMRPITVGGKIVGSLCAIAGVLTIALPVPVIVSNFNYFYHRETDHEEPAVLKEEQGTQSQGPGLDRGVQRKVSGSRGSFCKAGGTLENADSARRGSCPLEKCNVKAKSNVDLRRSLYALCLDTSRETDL

inhibition at 1 µM [1, 4]	IC50 [2]	IC50 [1]	Compound	inhibition at 10 µM [3]	IC50 [3]	Kv1.5% inhibition @ 1.0 μM [1, 4]
53%	12 µM		COc1ccc(CCN2C(=O)N(N)CC2c2ccc(C3CC3)cc2)cc1 (centres unmarked) [Compound 6, 1-Amino-3-[2-(4-methoxyphenyl)ethyl]-4-(4-cyclopropylphenyl)-2-imidazolidinone 4-methylbenzenesulfonic acid salt]	29%		
92%	43 µM	0.232 µM	COc1ccc(CCN2C(=O)N(NS(C)(=O)=O)CC2c2ccc(C)c(C)c2)cc1 (centres unmarked) [Compound 7, 1-(Methylsulfonylamino)-3-[2-(4-methoxyphenyl)ethyl]-4-(3,4-dimethylphenyl)-2-imidazolidinone]	16%		
90%	15 µM		COc1ccc(CCN2C(=O)N(NS(N)(=O)=O)CC2c2ccc(C)c(C)c2)cc1 (centres unmarked) [Compound 8, 1-(Aminosulfonylamino)-3-[2-(4-methoxyphenyl)ethyl]-4-(3,4-dimethylphenyl)-2-imidazolidinone]	16%		
90%	23 µM	0.689 µM	COc1ccc(CCN2C(=O)N(NS(N)(=O)=O)CC2c2ccc(C(C)(C)C)cc2)cc1 (centres unmarked) [Compound 9, 1-(Aminosulfonylamino)-3-[2-(4-methoxyphenyl)ethyl]-4-[4-(tert-butyl)phenyl]-2-imidazolidinone]	62%	7.3 µM	
89%	22 µM	0.238 µM	COc1ccc(CCN2C(=O)N(NS(N)(=O)=O)CC2c2ccc(C3CC3)cc2)cc1 (centres unmarked) [Compound 10, 1-(Aminosulfonylamino)-3-[2-(4-methoxyphenyl)ethyl]-4-[(4-cyclopropyl)-phenyl]-2-imidazolidinone]	57%		
69%	6.7 µM		CCCCS(=O)(=O)NN1CC(c2ccc(C(C)(C)C)cc2)N(CCc2ccc(OC)cc2)C1=O (centres unmarked) [Compound 32, 1-(Butylsulfonylamino)-3-[(4-methoxyphenyl)-ethyl]-4-[4-(tert-butyl)phenyl]-2-imidazolidinone]			
81%	12 µM		COc1ccc(CCN2C(=O)N(NS(=O)(=O)CCl)CC2c2ccc(C(C)(C)C)cc2)cc1 (centres unmarked) [Compound 39, 1-(Chloromethylsulfonylamino)-3-[2-(4-methoxyphenyl)ethyl]-4-(4-tert-butyl-phenyl)-2-imidazolidinone]			
29%	29 µM		COc1ccc(CCN2C(=O)N(NS(=O)(=O)CC(=O)N(C)C)CC2c2ccc(OC)cc2)cc1 (centres unmarked) [Compound 55, 1-[[2-(Dimethylamino)-2-oxoethyl]sulfonylamino]-3-[2-(4-methoxyphenyl)-ethyl]-4-(4-methoxyphenyl)-2-imidazolidinone]			
8%			CCCCC1CN(NS(C)(=O)=O)C(=O)N1CCc1ccc(OC)cc1 (centres unmarked) [Compound 128, N-{4-butyl-3-[2-(4-methoxyphenyl)ethyl]-2-oxoimidazolidin-1-yl}methanesulfonamide]	19%		
40%			COc1ccc(C2CN(NS(C)(=O)=O)C(=O)N2CCc2ccc(OC(F)F)cc2)cc1 (centres unmarked) [Compound 142, N-[3-{2-[4-(difluoromethoxy)phenyl]ethyl}-4-(4-methoxyphenyl)-2-oxoimidazolidin-1-yl]methanesulfonamide]	91%		

The remaining lines, values behind:

Compound	inhibition at 1 µM [1, 4]	IC50 [2]	IC50 [1]	inhibition at 10 µM [3]	IC50 [3]	Kv1.5% inhibition @ 1.0 μM [1, 4]
COc1ccc(CCCN2C(=O)N(N)CC2c2ccc(C3CC3)cc2)cc1 (centres unmarked) [Compound 4, 1-Amino-4-(4-cyclopropylphenyl)-3-[3-(4-methoxyphenyl)propyl]-2-imidazolidinone]	72%	4.5 µM		53%		
COc1ccc(CCN2C(=O)N(NC(=O)C3CC3)CC2c2ccc(C)c(C)c2)cc1 (centres unmarked) [Compound 72, Cyclopropanecarboxylic acid N-{3-[2-(4-methoxyphenyl)ethyl]-4-(3,4-dimethylphenyl)-2-oxo-imidazolidin-1-yl}-amide]	81%	18 µM				
COc1ccc(CCN2C(=O)N(NC(=O)c3ccco3)CC2c2ccc(C)c(C)c2)cc1 (centres unmarked) [Compound 74, 1-(2-Furanoylamino)-3-[2-(4-Methoxyphenyl)ethyl]-4-(3,4-dimethylphenyl)-2-imidazolidinone]	85%	25 µM				
COc1ccc(CCN2C(=O)N(NC(=O)c3ccno3)CC2c2ccc(C)c(C)c2)cc1 (centres unmarked) [Compound 78, 1-(Isoxazol-5-ylcarbonylamino)-3-[2-(4-methoxyphenyl)-ethyl]-4-(3,4-dimethylphenyl)-2-imidazolidinone]	75%	11 µM				
COc1ccc(CCN2C(=O)N(NC(=O)CN(C)Cc3ccccc3)CC2c2ccc(C(C)(C)C)cc2)cc1 (centres unmarked) [Compound 81, 2-(Benzylmethylamino)-N-{4-[4-(tert-butyl)phenyl]-3-[2-(4-methoxyphenyl)-ethyl]-2-oxo-imidazolidin-1-yl}-acetamide]	78%	4 µM				
COc1ccc(CCN2C(=O)N(NCc3ccccc3)CC2c2ccc(C(C)(C)C)cc2)cc1 (centres unmarked) [Compound 87, 1-Benzylamino-3-[2-(4-methoxyphenyl)ethyl]-4-[4-(tert-butyl)phenyl]-2-imidazolidinone]	57%	6 µM				
COc1ccc(CCN2C(=O)N(NCc3ccc(N(C)C)cc3)CC2c2ccc(C(C)(C)C)cc2)cc1 (centres unmarked) [Compound 91, 1-[(4-(Dimethylamino)phenylmethyl)amino]-3-[2-(4-methoxyphenyl)ethyl]-4-[4-(tert-butyl)phenyl]-2-imidazolidinone]	85%	4 µM				
COc1ccc(CCN2C(=O)N(NCCc3ccccc3)CC2c2ccc(C)c(C)c2)cc1 (centres unmarked) [Compound 97, 1-[(Phenylethyl)amino]-3-[2-(4-methoxyphenyl)ethyl]-4-(3,4-dimethylphenyl)-2-imidazolidinone]	81%	3.5 µM				
COc1ccc(CCN2C(=O)N(NCc3ccc(-n4ccnc4)cc3)CC2c2ccc(C)c(C)c2)cc1 (centres unmarked) [Compound 98, 1-[(4-(1H-imidazol-1-yl)phenylmethyl)amino]-3-[2-(4-methoxyphenyl)ethyl]-4-(3,4-dimethylphenyl)-2-imidazolidinone]	83%	4.8 µM				
CCC1(CC)CN(NS(C)(=O)=O)C(=O)N1CCc1ccc(OC)cc1 [Compound 111, N-{4,4-diethyl-3-[2-(4-methoxyphenyl)ethyl]-2-oxoimidazolidin-1-yl}methanesulfonamide]	9%			33%		
COC(=O)c1ccc(NN2CC(c3ccc(C)c(C)c3)N(CCc3ccc(OC)cc3)C2=O)c(N)c1 (centres unmarked) [Compound 135, methyl 3-amino-4-({4-(3,4-dimethylphenyl)-3-[2-(4-methoxyphenyl)ethyl]-2-oxoimidazolidin-1-yl}amino)benzoate]	53%	8 µM				
COc1ccc(CCN2C(=O)N(NS(C)(=O)=O)CC2C2CCCCC2)cc1 (centres unmarked) [Compound 145, N-{4-cyclohexyl-3-[2-(4-methoxyphenyl)ethyl]-2-oxoimidazolidin-1-yl}methanesulfonamide]	16%			11%		
tert-butyl [2-({4-(4-tert-butylphenyl)-3-[2-(4-methoxyphenyl)ethyl]-2-oxoimidazolidin-1-yl}amino)-2-oxoethyl]methylcarbamate [Compound 109]		4.6 µM				71%
